Literature values in patent US8633150B2, “Methods for inducing sustained immune response” (TNI Biotech, Inc., priority 2001, dated 2014).
Read-outs that look alike come from different tables or passages of the source.

Tests used:
[1] = Bihari
[2] = normal volunteers, HIV positive, and cancer patients; Plotnikoff, et al., 1997

SMILES: CSCC[C@H](NC(=O)[C@H](Cc1ccccc1)NC(=O)CNC(=O)CNC(=O)[C@@H](N)Cc1ccc(O)cc1)C(=O)O [met-enkephalin, methionine enkephalin]
- half-life in plasma ([1]; et al., 1991): approximately 2 minutes
- half-life in plasma ([1]; et al., 1991, listed as Met-enkelphalin): approximately two
- toxicity in clinical studies [2]: no major toxicity
